Publication PMC9997437, “Initiation and modulation of Tau protein phase separation by the drug suramin” (Scientific Reports, 2023)

Target: T1, Tau (Homo sapiens, UniProt P10636)
T1 construct: gene MAPT; full-length wildtype Tau (hTau40; 441 aa; 2N4R isoform, UniprotKB P10636-8)
Assay: microscale thermophoresis (MST) with fluorescently labelled Tau; supported by trDLS, microscopy and TEM of Tau:suramin condensates
Format: binding

T1 sequence (P10636 2-441 isoform P10636-8): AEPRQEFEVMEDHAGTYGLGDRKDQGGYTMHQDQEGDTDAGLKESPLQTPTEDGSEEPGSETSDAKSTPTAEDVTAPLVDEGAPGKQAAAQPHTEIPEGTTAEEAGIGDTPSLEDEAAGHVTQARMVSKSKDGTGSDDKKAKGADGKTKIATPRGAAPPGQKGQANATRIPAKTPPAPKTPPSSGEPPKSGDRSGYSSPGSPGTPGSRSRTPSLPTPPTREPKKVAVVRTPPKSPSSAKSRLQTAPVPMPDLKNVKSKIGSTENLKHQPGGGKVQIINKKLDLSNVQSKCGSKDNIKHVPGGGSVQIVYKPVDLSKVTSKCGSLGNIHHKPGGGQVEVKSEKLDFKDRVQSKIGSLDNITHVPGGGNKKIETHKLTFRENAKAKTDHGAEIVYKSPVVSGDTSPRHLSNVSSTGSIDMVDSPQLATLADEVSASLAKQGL

Kd: ~17 µM
Compound: Cc1ccc(C(=O)Nc2ccc(S(=O)(=O)O)c3cc(S(=O)(=O)O)cc(S(=O)(=O)O)c23)cc1NC(=O)c1cccc(NC(=O)Nc2cccc(C(=O)Nc3cc(C(=O)Nc4ccc(S(=O)(=O)O)c5cc(S(=O)(=O)O)cc(S(=O)(=O)O)c45)ccc3C)c2)c1 [suramin]
